Assay results as given in patent US8431706B2, “1,2,3,4-tetrahydroqinoline derivative useful for the treatment of diabetes” (Eli Lilly and Company, priority 2011, dated 2013).

Tests used:
[1] = test system: mouse insulinoma cell line Min6; test: Glucose Dependent Insulin Secretion (GDIS) assay in Min6 cells; type: cell-based
Procedure: Because activation of GPR40 is known to result in insulin secretion, which is dependent on high glucose concentrations, two separate assay systems (an insulinoma cell line and primary rodent islets) are developed to further characterize compounds that are known to increase intracellular calcium in the GPR40 primary assay discussed above.
GDIS assays are performed using the mouse insulinoma cell line Min6. […] On the day of the experiment, the cells are washed twice with 200 μl of pre-warmed Krebs-ringer buffer without glucose. Addition of 200 μL of pre-warmed Krebs-ringer buffer containing 2.5 mM glucose is used to starve the cells followed by the addition of compounds in the presence of a high concentration of glucose (25 mM). The plate is incubated at 37° C. for 2 hours. At the end of the 2 h incubation, the supernatant is gently transferred into a Millipore filter plate and spun at 200 g (gravitational force) for 3 minutes. Insulin is assayed using a Mercodia Insulin estimation kit.

[2] = target: T1, Gal4 PPARα (Homo sapiens, UniProt Q07869); test: Gal4 PPARα reporter functional assay in CV1 cells; type: cell-based; conditions: examined up to 10 μM; luciferase reporter; 24 hours
T1 construct: expressed in transfected cells; host or cells: CV1 (African green monkey kidney)
T1 sequence (Q07869 239-466 limits assumed): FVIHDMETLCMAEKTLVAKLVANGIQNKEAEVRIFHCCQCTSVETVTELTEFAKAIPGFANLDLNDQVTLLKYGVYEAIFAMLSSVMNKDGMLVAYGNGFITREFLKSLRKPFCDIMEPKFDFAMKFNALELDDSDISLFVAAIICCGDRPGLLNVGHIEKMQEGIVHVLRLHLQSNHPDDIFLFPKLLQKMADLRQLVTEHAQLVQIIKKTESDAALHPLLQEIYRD
Text: (§1) Gal4 PPARα, Gal4 PPARδ, and PPARγ reporter functional assays are also used to monitor the selectivity of the exemplified compound. CV1 cells, which are derived from the renal tissue of an African green monkey, are transfected with various receptor and reporter plasmids using Fugene. For the Gal4 PPARα and PPARδ assays, a reporter plasmid containing five tandem copies of the yeast transcription protein Gal4 response element, cloned upstream of a firefly luciferase gene driven by the major late promoter of adenovirus, is transfected together with a Simian Virus 40 (SV40) driven plasmid constitutively expressing a hybrid protein containing the Gal4 DNA binding domain (DBD), and either the PPARα or PPARδ ligand binding. For the PPARγ assay, plasmids encoding PPARγ and RXRα, both driven by a cytomegalovirus (CMV) promoter are transfected together with a plasmid containing luciferase reporter cDNA driven by the TK promoter and a receptor response element (2×PPRE). Cells are transfected in T225 cm^2 cell culture flasks in DMEM media with 5% charcoal-stripped FBS. […] After 24 hours incubation with the compound, cells are lysed and luciferase activity is determined as a measure of receptor activation by luminescence. […] The maximum percent stimulation is determined versus maximum stimulation obtained with 10 μM of an appropriate PPAR agonist reference compound. […]

[3] = target: T2, PPARγ (Homo sapiens, UniProt P37231); test: PPARγ reporter functional assay in CV1 cells; type: cell-based; conditions: examined up to 10 μM; luciferase reporter; 24 hours
T2 sequence (P37231 1-505): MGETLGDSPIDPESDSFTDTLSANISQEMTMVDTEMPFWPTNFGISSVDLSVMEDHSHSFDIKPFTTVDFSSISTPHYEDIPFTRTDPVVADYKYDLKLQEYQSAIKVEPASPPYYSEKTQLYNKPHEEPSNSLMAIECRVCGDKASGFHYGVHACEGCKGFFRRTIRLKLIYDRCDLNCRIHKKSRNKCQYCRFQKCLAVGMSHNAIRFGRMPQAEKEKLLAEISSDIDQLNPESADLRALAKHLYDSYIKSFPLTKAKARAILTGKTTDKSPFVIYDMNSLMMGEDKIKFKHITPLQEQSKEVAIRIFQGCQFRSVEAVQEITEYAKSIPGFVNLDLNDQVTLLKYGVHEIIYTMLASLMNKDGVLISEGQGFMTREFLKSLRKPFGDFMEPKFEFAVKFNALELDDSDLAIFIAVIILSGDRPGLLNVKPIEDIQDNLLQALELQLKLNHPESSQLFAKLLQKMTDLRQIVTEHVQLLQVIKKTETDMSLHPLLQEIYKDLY
T2 sequence (P19793 1-462 partner): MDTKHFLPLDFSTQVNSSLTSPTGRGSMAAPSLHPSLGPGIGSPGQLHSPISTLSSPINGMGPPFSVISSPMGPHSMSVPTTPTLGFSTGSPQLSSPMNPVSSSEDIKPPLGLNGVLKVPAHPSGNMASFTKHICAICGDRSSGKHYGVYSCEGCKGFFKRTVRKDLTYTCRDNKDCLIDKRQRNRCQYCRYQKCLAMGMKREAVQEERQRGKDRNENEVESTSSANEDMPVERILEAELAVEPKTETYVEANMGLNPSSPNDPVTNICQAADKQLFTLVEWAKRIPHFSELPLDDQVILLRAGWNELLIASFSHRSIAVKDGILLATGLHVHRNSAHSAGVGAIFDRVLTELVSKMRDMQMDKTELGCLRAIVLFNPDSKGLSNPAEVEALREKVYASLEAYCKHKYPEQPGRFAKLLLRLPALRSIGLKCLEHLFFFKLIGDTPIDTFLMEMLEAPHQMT
Text: as §1

[4] = target: human GPR40 (Homo sapiens, UniProt O14842); test: cell-based
Sequence of human GPR40 (O14842 whole entry): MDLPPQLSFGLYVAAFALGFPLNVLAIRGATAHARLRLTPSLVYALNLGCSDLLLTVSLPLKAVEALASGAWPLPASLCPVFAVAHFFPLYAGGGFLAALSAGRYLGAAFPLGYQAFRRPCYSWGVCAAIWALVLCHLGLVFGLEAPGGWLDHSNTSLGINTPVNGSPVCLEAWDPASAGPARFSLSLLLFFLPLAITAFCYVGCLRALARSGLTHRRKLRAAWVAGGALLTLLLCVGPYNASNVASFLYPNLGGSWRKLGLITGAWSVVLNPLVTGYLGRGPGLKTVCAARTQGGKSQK

SMILES: CC#C[C@@H](CC(=O)O)c1ccc(OCc2ccc(CN3CCCc4cccc(OC)c43)s2)cc1 [Example 1, (3S)-3-[4-[[5-[(8-Methoxy-3,4-dihydro-2H-quinolin-1-yl)methyl]-2-thienyl]methoxy]phenyl]hex-4-ynoic acid]
- increase in insulin secretion ([1]; 1.0 μM plus 25 mM glucose, fold over 25 mM glucose, 2 h, P<0.01): 2.68 fold
- insulin secretion, dose response ([1]; 0.01, 0.1, 1.0 and 10.0 μM plus 25 mM glucose): dose dependent increase in insulin secretion
- functional activation of PPARα [2]: No functional activation
- functional activation of PPARγ [3]: No functional activation
- EC50 ([4]; EC50, HEK293 cells over expressing human GPR40, 0.1% fatty acid free BSA, FLIPR): 152 nM
- EC50 ([4]; EC50 value for the Calcium Flux Primary assay, HEK293 cells over expressing human GPR40, bound stated): < 1000 nM
